ChEMBL document CHEMBL1139221, “2-(4-Chlorobenzyl)-3-hydroxy-7,8,9,10-tetrahydrobenzo[H]quinoline-4-carboxylic acid (PSI-697): identification of a clinical candidate from the quinoline salicylic acid series of P-selectin antagonists” (J Med Chem, 2007)
Blank lines part the entries; values can stand above or below the molecule they belong to. Activity calls are given as the source filed them. The calls are words filed in the database; no cut-off is given here.

Tests used:
[1] = biological target: T1, P-selectin (Homo sapiens) (UniProt P16109); experiment: (§1) Inhibition of P-Selectin by Biacore assay
T1 sequence (whole entry): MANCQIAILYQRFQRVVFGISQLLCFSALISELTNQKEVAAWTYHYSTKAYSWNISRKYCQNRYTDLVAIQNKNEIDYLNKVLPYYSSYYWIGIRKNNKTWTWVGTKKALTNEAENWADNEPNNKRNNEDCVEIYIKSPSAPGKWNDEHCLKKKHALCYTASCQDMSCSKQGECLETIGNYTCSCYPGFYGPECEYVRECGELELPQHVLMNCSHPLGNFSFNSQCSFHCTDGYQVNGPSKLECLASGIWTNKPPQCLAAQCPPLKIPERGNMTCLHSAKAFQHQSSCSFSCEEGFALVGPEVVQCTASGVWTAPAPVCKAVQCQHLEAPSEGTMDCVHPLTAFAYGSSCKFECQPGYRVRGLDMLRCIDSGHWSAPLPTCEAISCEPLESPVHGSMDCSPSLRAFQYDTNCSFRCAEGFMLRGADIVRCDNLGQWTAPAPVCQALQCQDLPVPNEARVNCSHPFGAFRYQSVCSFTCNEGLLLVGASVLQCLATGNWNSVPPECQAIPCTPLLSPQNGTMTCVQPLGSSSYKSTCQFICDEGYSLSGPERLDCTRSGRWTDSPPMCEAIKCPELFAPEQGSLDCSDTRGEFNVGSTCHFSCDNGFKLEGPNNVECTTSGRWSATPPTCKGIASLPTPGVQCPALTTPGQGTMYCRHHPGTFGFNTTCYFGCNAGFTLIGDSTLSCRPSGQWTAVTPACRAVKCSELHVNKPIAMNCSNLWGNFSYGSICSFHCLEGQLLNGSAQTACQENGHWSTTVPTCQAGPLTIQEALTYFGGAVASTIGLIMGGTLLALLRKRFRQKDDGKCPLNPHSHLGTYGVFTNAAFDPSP

[2] = biological target: T1, P-selectin (Homo sapiens); experiment: Inhibition of P-Selectin by Biacore assay at 500 uM
P-selectin = biological target: T2, P-selectin (Homo sapiens, UniProt P16109); experiment: as §1
T2 sequence (P16109 whole entry): T1 sequence (whole entry)

[3] = biological target: T1, P-selectin (Homo sapiens); experiment: Inhibition of P-Selectin by Biacore assay at 250 uM

Activity [1]: inactive
Compound: Cc1ccc2nc(Cc3c[nH]c4ccccc34)c(O)c(C(=O)O)c2c1

Activity [1]: inactive
Compound: O=C(O)c1c(O)c(Cc2ccc(Cl)cc2)nc2c3c(ccc12)CCN(C(=O)c1ccccc1)C3

inhibition [2]: 19%
Compound: CCc1ccc2c(C(=O)O)c(O)c(Cc3ccc(Cl)cc3)nc2c1

IC50 (P-selectin): 413 µM
Compound: O=C(O)c1c(O)c(Cc2ccccc2)nc2c3c(ccc12)CCCC3

inhibition [3]: 10%
Compound: CC(=O)Nc1c(Cc2ccc(Cl)cc2)nc2c3c(ccc2c1C(=O)O)CCCC3

IC50 (P-selectin): 450 µM
Compound: O=C(O)c1c(O)c(CCc2ccccc2)nc2c3c(ccc12)CCCC3

IC50 (P-selectin): 390 µM
Compound: O=C(O)c1c(OCc2ccccc2)c(Cc2ccc(Cl)cc2)nc2c3c(ccc12)CCCC3

Activity [1]: inactive
Compound: CC(=O)N1CCc2ccc3c(C(=O)O)c(O)c(Cc4ccc(Cl)cc4)nc3c2C1

IC50 (P-selectin): 270 µM
Compound: Cc1[nH]c2ccccc2c1Cc1nc2c3c(ccc2c(C(=O)O)c1O)CCCC3

inhibition [2]: 34%
Compound: CC(=O)n1cc(Cc2nc3c4c(ccc3c(C(=O)O)c2O)CCCC4)c2ccccc21

inhibition [2]: 12%
Compound: O=C(O)c1c(O)c(Cc2ccc(Cl)cc2)nc2c(F)cccc12

inhibition [2]: 38%
Compound: O=C(O)c1c(O)c(Cc2ccc(Cl)cc2)nc2ccc(-c3ccccc3)cc12

Activity [1]: inactive
Compound: O=C(O)c1c(Cc2ccc(Cl)cc2)nc2c3c(ccc2c1O)CCCC3

inhibition [3]: 15%
Compound: Nc1c(Cc2ccc(Cl)cc2)nc2c3c(ccc2c1C(=O)O)CCCC3

Activity [1]: inactive
Compound: NC(=O)N1CCc2ccc3c(C(=O)O)c(O)c(Cc4ccc(Cl)cc4)nc3c2C1

Activity [1]: inactive
Compound: O=C(O)c1c(O)c(Cc2c[nH]c3ccccc23)nc2ccc(OC(F)(F)F)cc12

IC50 (P-selectin): 190 µM
Compound: O=C(Oc1c(Cc2ccc(Cl)cc2)nc2c3c(ccc2c1C(=O)O)CCCC3)c1ccccc1

IC50 (P-selectin): 175 µM
Compound: O=C(O)c1c(OC(=O)C2CCCCC2)c(Cc2ccc(Cl)cc2)nc2c3c(ccc12)CCCC3

IC50 (P-selectin): 425 µM
Compound: O=C(O)c1c(O)c(Cc2ccc(Cl)cc2)nc2c(Br)cccc12

inhibition [2]: 8%
Compound: O=C(O)c1c(O)c(Cc2ccc(Cl)cc2)nc2c(C(=O)O)cccc12

Activity [1]: inactive
Compound: CC(C)N1CCc2ccc3c(C(=O)O)c(O)c(Cc4ccc(Cl)cc4)nc3c2C1

inhibition [2]: 18%
Compound: O=C(O)c1c(O)c(Cc2c[nH]c3ccccc23)nc2c(OC(F)(F)F)cccc12

IC50 (P-selectin): 225 µM
Compound: O=C(O)c1c(O)c(-c2c[nH]c3ccccc23)nc2c3c(ccc12)CCCC3

IC50 (P-selectin): 415 µM
Compound: CC(C)c1cccc2c(C(=O)O)c(O)c(Cc3c[nH]c4ccccc34)nc12

inhibition [2]: 22%
Compound: Cc1c(Cc2nc3c4c(ccc3c(C(=O)O)c2O)CCCC4)sc2ccccc12

inhibition [2]: 15%
Compound: O=C(O)c1c(O)c(Cc2c[nH]c3ccccc23)nc2c(Br)cccc12

IC50 (P-selectin): 550 µM
Compound: O=C(O)c1c(O)c(-c2ccccc2)nc2c3c(ccc12)CCCC3

IC50 (P-selectin): 900 µM
Compound: O=C(O)c1c(O)c(Cc2ccc(Cl)cc2)nc2cc(Cl)ccc12

IC50 (P-selectin): 400 µM
Compound: COC(=O)Oc1c(Cc2ccc(Cl)cc2)nc2c3c(ccc2c1C(=O)O)CCCC3

IC50 (P-selectin): 175 µM
Compound: O=C(Oc1c(Cc2ccc(Cl)cc2)nc2c3c(ccc2c1C(=O)O)CCCC3)c1cccs1

IC50 (P-selectin): 475 µM
Compound: O=C(O)c1c(O)c(Cc2ccsc2)nc2c3c(ccc12)CCCC3

IC50 (P-selectin): 250 µM
Compound: CC(C)COC(=O)Oc1c(Cc2ccc(Cl)cc2)nc2c3c(ccc2c1C(=O)O)CCCC3

IC50 (P-selectin): 6500 µM
Compound: O=C(O)c1c(O)c(-c2ccccc2)nc2ccccc12 [OXYCINCHOPHEN]

IC50 (P-selectin): 200 µM
Compound: Cc1ccc2[nH]cc(Cc3nc4c5c(ccc4c(C(=O)O)c3O)CCCC5)c2c1

inhibition [2]: 12%
Compound: CC(C)(C)c1cccc2c(C(=O)O)c(O)c(Cc3ccc(Cl)cc3)nc12

IC50 (P-selectin): 610 µM
Compound: O=C(O)c1c(O)c(Cc2ccc(OC(F)(F)F)cc2)nc2c3c(ccc12)CCCC3

Activity [1]: inactive
Compound: CCOC(=O)N1CCc2ccc3c(C(=O)O)c(O)c(Cc4ccc(Cl)cc4)nc3c2C1

Activity [1]: inactive
Compound: COc1ccc(-c2ccccc2)c2nc(Cc3ccc(Cl)cc3)c(O)c(C(=O)O)c12

IC50 (P-selectin): 400 µM
Compound: COc1ccc2[nH]cc(Cc3nc4c5c(ccc4c(C(=O)O)c3O)CCCC5)c2c1

inhibition [2]: 12%
Compound: Cc1ccc2c(C(=O)O)c(O)c(Cc3ccc(Cl)cc3)nc2c1

Activity [1]: inactive
Compound: O=C(O)c1c(O)c(Cc2c[nH]c3ccccc23)nc2c(Cl)cccc12

IC50 (P-selectin): 550 µM
Compound: O=C(O)c1c(O)c(Cc2ccc(Cl)cc2)nc2c(OC(F)(F)F)cccc12

Activity [1]: inactive
Compound: CC(C)OC(=O)n1cc(Cc2nc3c4c(ccc3c(C(=O)O)c2O)CCCC4)c2ccccc21

IC50 (P-selectin): 625 µM
Compound: CS(=O)(=O)N1CCc2ccc3c(C(=O)O)c(O)c(Cc4ccc(Cl)cc4)nc3c2C1

IC50 (P-selectin): 225 µM
Compound: O=C(O)c1c(O)c(Cc2coc3ccccc23)nc2c3c(ccc12)CCCC3

IC50 (P-selectin): 250 µM
Compound: CCc1cccc2c(C(=O)O)c(O)c(Cc3ccc(Cl)cc3)nc12

IC50 (P-selectin): 325 µM
Compound: O=C(O)c1c(O)c(Cc2ccc(Cl)cc2)nc2c(C(F)(F)F)cccc12

Activity [1]: inactive
Compound: O=C(O)c1c(O)c(Cc2ccc(Cl)cc2)nc2c3c(ccc12)CCNC3

IC50 (P-selectin): 413 µM
Compound: O=C(O)c1c(O)c(Cc2cccs2)nc2c3c(ccc12)CCCC3

Activity [1]: inactive
Compound: O=C(O)c1c(O)c(Cc2cn(C(=O)Cc3ccccc3)c3ccccc23)nc2c3c(ccc12)CCCC3

Activity [1]: inactive
Compound: CCc1ccc2c(C(=O)O)c(O)c(Cc3c[nH]c4ccccc34)nc2c1

inhibition [2]: 10%
Compound: O=C(O)c1ccc(Cc2nc3c4c(ccc3c(C(=O)O)c2O)CCCC4)cc1

IC50 (P-selectin): 380 µM
Compound: O=C(O)c1c(O)c(Cc2c[nH]c3ccccc23)nc2c(-c3ccsc3)cccc12

IC50 (P-selectin): 715 µM
Compound: O=C(O)c1c(O)c(Cc2ccc(Cl)cc2)nc2c(Cl)cccc12

IC50 (P-selectin): 650 µM
Compound: O=C(O)c1c(O)c(Cc2ccc(Cl)cc2)nc2ccc(Br)cc12

Activity [1]: inactive
Compound: O=C(O)c1c(O)c(Cc2csc3ccc(Cl)cc23)nc2c3c(ccc12)CCCC3

IC50 (P-selectin): 200 µM
Compound: O=C(O)c1c(O)c(Cc2ccc(Cl)cc2)nc2c(-c3ccccc3)cccc12

inhibition [3]: 13%
Compound: CC(C)C(=O)Oc1c(Cc2ccc(Cl)cc2)nc2c3c(ccc2c1C(=O)O)CCCC3

inhibition [2]: 11%
Compound: Cc1cccc2c(C(=O)O)c(O)c(Cc3c[nH]c4ccccc34)nc12

IC50 (P-selectin): 150 µM
Compound: O=C(O)c1c(O)c(Cc2ccc(Cl)cc2)nc2c(-c3ccoc3)cccc12

IC50 (P-selectin): 225 µM
Compound: CC(C)c1cccc2c(C(=O)O)c(O)c(Cc3ccc(Cl)cc3)nc12

inhibition [2]: 19%
Compound: CCc1cccc2c(C(=O)O)c(O)c(Cc3c[nH]c4ccccc34)nc12

Activity [1]: inactive
Compound: O=C(OCc1ccccc1)c1c(OCc2ccccc2)c(Cc2ccc(Cl)cc2)nc2c3c(ccc12)CCCC3

Activity [1]: inactive
Compound: Cc1ccc2c(C(=O)O)c(O)c(Cc3c[nH]c4ccccc34)nc2c1

Activity [1]: inactive
Compound: O=C(O)c1c(O)c(Cc2c[nH]c3ccccc23)nc2c(F)cccc12

IC50 (P-selectin): 225 µM
Compound: O=C(O)c1c(O)c(Cc2ccc(Cl)cc2)nc2c(-c3ccsc3)cccc12

IC50 (P-selectin): 300 µM
Compound: CCC(C)c1cccc2c(C(=O)O)c(O)c(Cc3ccc(Cl)cc3)nc12 (centres undefined)

IC50 (P-selectin): 500 µM
Compound: CC(C)S(=O)(=O)N1CCc2ccc3c(C(=O)O)c(O)c(Cc4ccc(Cl)cc4)nc3c2C1

Activity [1]: inactive
Compound: O=C(O)c1c(O)c(Cc2c[nH]c3ccccc23)nc2ccc(Br)cc12

inhibition [3]: 20%
Compound: COc1c(Cc2ccc(Cl)cc2)nc2c3c(ccc2c1C(=O)O)CCCC3

IC50 (P-selectin): 580 µM
Compound: O=C(O)c1c(O)c(Cc2ccc(Cl)cc2)nc2c3c(ccc12)CCC3

IC50 (P-selectin): 545 µM
Compound: CC(=O)Oc1c(Cc2ccc(Cl)cc2)nc2c3c(ccc2c1C(=O)O)CCCC3

inhibition [3]: 19%
Compound: O=C(Nc1c(Cc2ccc(Cl)cc2)nc2c3c(ccc2c1C(=O)O)CCCC3)c1ccccc1

Activity [1]: inactive
Compound: O=C(O)c1c(O)c(Cc2ccc(Cl)cc2)nc2c3c(ccc12)CCN(Cc1ccccc1)C3

Activity [1]: inactive
Compound: O=C(O)c1c(O)c(Cc2c[nH]c3ccccc23)nc2cc(Br)ccc12

IC50 (P-selectin): 175 µM
Compound: O=C(O)c1c(O)c(Cc2c[nH]c3ccc(Br)cc23)nc2c3c(ccc12)CCCC3

IC50 (P-selectin): 500 µM
Compound: N#Cc1ccc(Cc2nc3c4c(ccc3c(C(=O)O)c2O)CCCC4)cc1

Activity [1]: inactive
Compound: O=C(O)c1c(O)c(Cc2c[nH]c3ccccc23)nc2ccccc12

Activity [1]: inactive
Compound: CCN1CCc2ccc3c(C(=O)O)c(O)c(Cc4ccc(Cl)cc4)nc3c2C1

IC50 (P-selectin): 200 µM
Compound: Cc1ccc(-c2nc3c4c(ccc3c(C(=O)O)c2O)CCCC4)s1

inhibition [2]: 15%
Compound: O=C(O)c1c(O)c(Cc2c[nH]c3ccccc23)nc2c(C(F)(F)F)cccc12

IC50 (P-selectin): 1500 µM
Compound: Cc1ccc2c(C(=O)O)c(O)c(-c3ccccc3)nc2c1C

IC50 (P-selectin): 100 µM
Compound: O=C(O)c1c(O)c(Cc2csc3ccccc23)nc2c3c(ccc12)CCCC3

IC50 (P-selectin): 1000 µM
Compound: Cc1cccc2c(C(=O)O)c(O)c(Cc3ccc(Cl)cc3)nc12

IC50 (P-selectin): 125 µM
Compound: O=C(O)c1c(O)c(Nc2ccc(Cl)cc2)nc2c(C(F)(F)F)cccc12

IC50 (P-selectin): 1250 µM
Compound: NC(=O)c1ccc(Cc2nc3c4c(ccc3c(C(=O)O)c2O)CCCC4)cc1

inhibition [2]: 36%
Compound: O=C(O)c1c(O)c(Cc2ccc(Cl)c(Cl)c2)nc2c3c(ccc12)CCCC3

Activity [1]: inactive
Compound: O=C(O)c1c(O)c(Cc2c[nH]c3ccccc23)nc2ccc(F)cc12

Activity [1]: inactive
Compound: O=C(O)c1c(O)c(Cc2ccc(Cl)cc2)nc2ccccc12
